Assay results: US20180244611A1, “Modulators of the Cystic Fibrosis Transmembrane Conductance Regulator Protein and Methods of Use” (AbbVie S.à.r.l., priority 2017, published 2018)

Key:
[1] = target: T1, F508delCFTR (Homo sapiens, UniProt P13569, DEL508-508); assay: Cell Surface Expression-Horse Radish Peroxidase (CSE-HRP) assay, test compound with co-corrector; type: cell-based; conditions: with 2 μM co-corrector; for Maximum % activity (with co-corrector): maximum at any tested concentration, normalized to positive control;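 for Maximum % activity (with co-corrector): percent of 2 µM positive control corrector over DMSO; co-corrector is that same compound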
T1 construct: expressed in transfected cells; host or cells: CFBE41o- human lung-derived epithelial cells (CFBE41o-F508delCFTR-HRP), doxycycline-inducible
T1 sequence (P13569 with tags, fused parts or gaps DEL508-508): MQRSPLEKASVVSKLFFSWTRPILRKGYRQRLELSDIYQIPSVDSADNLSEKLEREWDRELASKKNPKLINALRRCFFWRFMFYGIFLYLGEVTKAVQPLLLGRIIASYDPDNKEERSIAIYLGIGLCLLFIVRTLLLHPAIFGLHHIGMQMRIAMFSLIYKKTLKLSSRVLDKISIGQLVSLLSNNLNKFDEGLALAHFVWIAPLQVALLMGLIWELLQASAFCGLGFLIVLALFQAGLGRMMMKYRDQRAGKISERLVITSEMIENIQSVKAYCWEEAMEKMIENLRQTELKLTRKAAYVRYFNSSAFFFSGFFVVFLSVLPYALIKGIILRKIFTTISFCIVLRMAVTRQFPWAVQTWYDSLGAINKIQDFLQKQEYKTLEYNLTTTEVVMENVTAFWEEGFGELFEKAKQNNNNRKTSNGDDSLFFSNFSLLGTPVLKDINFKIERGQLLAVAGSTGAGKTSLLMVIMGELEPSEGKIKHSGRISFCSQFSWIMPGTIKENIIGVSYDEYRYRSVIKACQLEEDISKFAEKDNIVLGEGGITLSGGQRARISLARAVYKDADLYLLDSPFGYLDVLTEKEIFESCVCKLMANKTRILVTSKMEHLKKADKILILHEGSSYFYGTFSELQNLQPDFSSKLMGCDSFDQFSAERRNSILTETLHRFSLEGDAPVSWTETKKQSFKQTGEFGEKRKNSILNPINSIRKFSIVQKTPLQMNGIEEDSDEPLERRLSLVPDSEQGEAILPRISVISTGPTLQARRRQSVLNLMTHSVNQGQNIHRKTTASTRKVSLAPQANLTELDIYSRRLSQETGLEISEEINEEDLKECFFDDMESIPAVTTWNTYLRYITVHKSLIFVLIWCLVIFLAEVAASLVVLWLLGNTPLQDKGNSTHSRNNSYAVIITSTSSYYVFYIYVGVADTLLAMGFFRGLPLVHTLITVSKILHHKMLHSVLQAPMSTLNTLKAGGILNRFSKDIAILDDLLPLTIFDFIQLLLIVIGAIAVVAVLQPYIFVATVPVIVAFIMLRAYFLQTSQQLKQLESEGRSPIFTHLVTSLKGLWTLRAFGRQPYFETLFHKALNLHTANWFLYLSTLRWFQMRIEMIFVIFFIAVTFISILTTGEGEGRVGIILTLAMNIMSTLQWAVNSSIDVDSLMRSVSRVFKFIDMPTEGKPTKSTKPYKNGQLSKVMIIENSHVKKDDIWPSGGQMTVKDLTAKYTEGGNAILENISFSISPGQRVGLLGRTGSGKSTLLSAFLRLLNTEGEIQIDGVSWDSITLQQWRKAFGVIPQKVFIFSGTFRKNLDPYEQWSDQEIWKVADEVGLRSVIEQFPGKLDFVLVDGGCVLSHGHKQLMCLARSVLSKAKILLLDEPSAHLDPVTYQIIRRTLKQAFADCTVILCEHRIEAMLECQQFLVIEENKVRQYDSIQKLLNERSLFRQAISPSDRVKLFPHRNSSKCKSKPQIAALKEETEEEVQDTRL
Protocol: (§1) Cell Surface Expression-Horse Radish Peroxidase (CSE-HRP) Assay
(§2) A cellular assay for measuring the F508delCFTR cell surface expression after correction with test compounds either without or with a co-corrector (2 μM of 3-[(2R,4R)-4-({[1-(2,2-difluoro-1,3-benzodioxol-5-yl)cyclopropyl]carbonyl}amino)-7-methoxy-3,4-dihydro-2H-chromen-2-yl]benzoic acid), was developed in human lung derived epithelial cell line (CFBE41o-) (Veit G et al, (2012) Mol Biol Cell. 23(21): 4188-4202). The development was achieved by expressing the F508delCFTR mutation along with a horseradish peroxidase (HRP) in the fourth exofacial loop, and then measuring the HRP activity using luminescence readout from these cells, CFBE41o-F508delCFTR-HRP, that were incubated overnight with the test corrector compounds, either without or with the co-corrector. For this primary assay, the CFBE41o-F508delCFTR-HRP cells were plated in 384-well plates (Greiner Bio-one; Cat 781080) at 4,000 cells/well along with 0.5 μg/mL doxycycline to induce the F508delCFTR-HRP expression and further incubated at 37° C., 5% CO2 for 72 hours. The test compounds were then added either without or with a co-corrector at the required concentrations and further incubated for 18-24 hours at 33° C. The highest concentration tested was 20 μM with an 8-point concentration response curve using a 3-fold dilution in both the test compound without or with the co-corrector. Three replicate plates were run to determine one EC50. All plates contained negative controls (dimethyl sulfoxide, DMSO) and positive control (2 μM of 3-[(2R,4R)-4-({[1-(2,2-difluoro-1,3-benzodioxol-5-yl)cyclopropyl]carbonyl}amino)-7-methoxy-3,4-dihydro-2H-chromen-2-yl]benzoic acid) as well as on-plate concentration response of the positive control. Post incubation, the plates were washed 5× times with Dulbecco's phosphate buffered saline (DPBS), followed by the addition of the HRP substrate, luminol (50 μL), and measuring the HRP activity using luminescence readout on EnVision® Multilabel Plate Reader (Perkin Elmer; product number 2104-0010). The raw counts from the experiment were analyzed using Accelrys® Assay Explorer v3.3.
(§3) Z′ greater than 0.5 was used as passing quality control criteria for the plates.
(§4) 1−[3*SDPositive Control+3*SDNegative Control/Absolute (MeanPositive Control−MeanNegative Control)]
(§5) wherein “SD” is standard deviation.
(§6) The % activity measured at each of the 8 test concentrations of the test compound added either without or with a co-corrector (2 μM of 3-[(2R,4R)-4-({[1-(2,2-difluoro-1,3-benzodioxol-5-yl)cyclopropyl]carbonyl}amino)-7-methoxy-3,4-dihydro-2H-chromen-2-yl]benzoic acid) was normalized to the on-plate positive control using the following formulae:
activity (Test compound with co-corrector)=[(test compound with co-corrector response−DMSO response)/(positive control response−DMSO response)]*100
(§7) The maximum % activity achieved for the test compound either without or with a co-corrector at any tested concentration is presented in Table 1 along with the respective EC50's calculated using the following general sigmoidal curve with variable Hill slope equation (described as Model 42 in the Accelrys® Assay Explorer v3.3 software):
(§8) General sigmoidal curve with concentration, response, top, bottom, EC50 and Hill slope. This model describes a sigmoidal curve with an adjustable baseline, a. The equation can be used to fit curves where response is either increasing or decreasing with respect to the independent variable, “x”.
“x” is a concentration of drug under test. “y” is the response. “a” is the maximum response, and “d” is the minimum response “c” is the inflection point (EC50) for the curve. That is, “y” is halfway between the lower and upper asymptotes when x=c. “b” is the slope-factor or Hill coefficient. The sign of b is positive when the response increases with increasing dose and is negative when the response decreases with increasing dose (inhibition).

[2] = target: T1, F508delCFTR; assay: Cell Surface Expression-Horse Radish Peroxidase (CSE-HRP) assay, test compound without co-corrector; type: cell-based; conditions: for Emax: maximum at any tested concentration, normalized to positive control, without co-corrector; for EC50: test compound without co-corrector;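 for Emax: percent of on-plate 2 µM positive control corrector response over DMSO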
Protocol: as §1, §2, §3, §4, §5, §6
% activity (Test compound without co-corrector)=[(test compound without co-corrector response−DMSO response)/(positive control response−DMSO response)]*100%
as §7, §8
“x” is a concentration of drug under test. “y” is the response. “a” is the maximum response, and “d” is the minimum response “c” is the inflection point (EC50) for the curve. That is, “y” is halfway between the lower and upper asymptotes when x=c. “b” is the slope-factor or Hill coefficient. The sign of b is positive when the response increases with increasing dose and is negative when the response decreases with increasing dose (inhibition). The data is presented with the qualifiers shown below: […]

Row | SMILES | Maximum % activity (with co-corrector) [1] | EC50 [1] | Emax [2] | EC50 [2]
1 | CCC1(C(=O)NS(=O)(=O)c2cccc3cccc(O)c23)CCc2c(Cl)cccc21 (centres unmarked) [Example I-31, 4-chloro-1-ethyl-N-(8-hydroxynaphthalene-1-sulfonyl)-2,3-dihydro-1H-indene-1-carboxamide] | +++ (≥350) | < 3 µM | 50 to 150% | < 3 µM
2 | COc1ccc(C2CCC2)c2c1CCCC2C(=O)NS(=O)(=O)c1cccc2ccccc12 (centres unmarked) [Example I-33, 8-cyclobutyl-5-methoxy-N-(naphthalene-1-sulfonyl)-1,2,3,4-tetrahydronaphthalene-1-carboxamide] | +++ (≥350) | < 3 µM | ≥ 150% | < 3 µM
3 | CCC1(C(=O)NS(=O)(=O)c2cccc3ccccc23)CCCc2cccc(Cl)c21 (centres unmarked) [Example I-34, 8-chloro-1-ethyl-N-(naphthalene-1-sulfonyl)-1,2,3,4-tetrahydronaphthalene-1-carboxamide] | +++ (≥350) | < 3 µM | ≥ 150% | < 3 µM
4 | O=C(NS(=O)(=O)c1cccc2ccccc12)C1(Cc2ccc(Cl)nc2)CCc2c(Cl)cccc21 (centres unmarked) [Example I-36, 4-chloro-1-[(6-chloropyridin-3-yl)methyl]-N-(naphthalene-1-sulfonyl)-2,3-dihydro-1H-indene-1-carboxamide] | +++ (≥350) | < 3 µM | 50 to 150% | 3 to 10 µM
5 | CCC1(C(=O)NS(=O)(=O)c2cccc3c(Cl)cccc23)CCc2c(Cl)cccc21 (centres unmarked) [Example I-39, 4-chloro-N-(5-chloronaphthalene-1-sulfonyl)-1-ethyl-2,3-dihydro-1H-indene-1-carboxamide] | +++ (≥350) | < 3 µM | 50 to 150% | < 3 µM
6 | CC(C)Oc1ccc(Br)c2c1CCCC2C(=O)NS(=O)(=O)c1cccc2ccccc12 (centres unmarked) [Example I-40, 8-bromo-N-(naphthalene-1-sulfonyl)-5-[(propan-2-yl)oxy]-1,2,3,4-tetrahydronaphthalene-1-carboxamide] | +++ (≥350) | < 3 µM | ≥ 150% | < 3 µM

Now from value to compound:

Row | Maximum % activity (with co-corrector) [1] | EC50 [1] | Emax [2] | EC50 [2] | SMILES
7 | +++ (≥350) | < 3 µM | ≥ 150% | < 3 µM | CCOc1ccc(Br)c2c1CCCC2C(=O)NS(=O)(=O)c1cccc2ccccc12 (centres unmarked) [Example I-32, 8-bromo-5-ethoxy-N-(naphthalene-1-sulfonyl)-1,2,3,4-tetrahydronaphthalene-1-carboxamide]
8 | +++ (≥350) | < 3 µM | ≥ 150% | < 3 µM | O=C(NS(=O)(=O)c1cccc2ccccc12)C1(Cc2cccc(C(F)(F)F)n2)CCc2c(Cl)cccc21 (centres unmarked) [Example I-35, 4-chloro-N-(naphthalene-1-sulfonyl)-1-{[6-(trifluoromethyl)pyridin-2-yl]methyl}-2,3-dihydro-1H-indene-1-carboxamide]
9 | +++ (≥350) | 3 to 10 µM | 50 to 150% | 3 to 10 µM | COc1cccc(CC2(C(=O)NS(=O)(=O)c3cccc4ccccc34)CCc3c(Cl)cccc32)n1 (centres unmarked) [Example I-37, 4-chloro-1-[(6-methoxypyridin-2-yl)methyl]-N-(naphthalene-1-sulfonyl)-2,3-dihydro-1H-indene-1-carboxamide]
10 | +++ (≥350) | < 3 µM | ≥ 150% | 3 to 10 µM | CC1(C(=O)NS(=O)(=O)c2cccc3ccccc23)CCc2c(Cl)cccc21 (centres unmarked) [Example I-38, 4-chloro-1-methyl-N-(naphthalene-1-sulfonyl)-2,3-dihydro-1H-indene-1-carboxamide]
11 | +++ (≥350) | < 3 µM | ≥ 150% | < 3 µM | COc1ccc(Br)c2c1C(C(=O)NS(=O)(=O)c1cccc3ccccc13)CCC2 (centres unmarked) [Example I-41, 5-bromo-8-methoxy-N-(naphthalene-1-sulfonyl)-1,2,3,4-tetrahydronaphthalene-1-carboxamide]
